# Source: PubChem BioAssay (NCI)
#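 96-well plates; 48 h exposure; 5 concentrations. Endpoints by linear interpolation between flanking doses. Not reached: highest tested concentration assigned. GI50: concentration for 50% inhibition of growth. TGI marks complete inhibition of growth.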
# How the values were obtained:
# Assay in all cases: DTP human tumour cell line panel, 48 h
# [1] = system: M14 melanoma
# [2] = system: HOP-92 NSCLC
# [3] = system: KM12 colon
# [4] = system: MDA-MB-468 breast
# [5] = system: CAKI-1 renal
# [6] = system: OVCAR-5 ovarian
# [7] = system: SK-OV-3 ovarian
# [8] = system: EKVX NSCLC
# [9] = system: RXF 393 renal
# [10] = system: A549 NSCLC
# [11] = system: NCI-H23 lung
# [12] = system: SR leukemia
# [13] = system: PC-3 prostate
# [14] = system: BT-549 breast
# [15] = system: MCF7 breast
# [16] = system: MALME-3M melanoma
# [17] = system: HT29 colon
# [18] = system: HOP-62 NSCLC
# [19] = system: NCI-H522 lung
# [20] = system: DU-145 prostate
# [21] = system: NCI-H460 lung
# [22] = system: TK-10 renal
# [23] = system: HCT-116 colon
# [24] = system: SF-539 CNS
# [25] = system: ACHN renal
# [26] = system: IGROV1 ovarian
# [27] = system: MOLT-4 leukemia
# [28] = system: 786-0 renal
# [29] = system: SN12C renal
# [30] = system: SK-MEL-5 melanoma
# [31] = system: T-47D breast
# [32] = system: SW-620 colon
# [33] = system: HCT-15 colon
# [34] = system: COLO 205 colon
# [35] = system: K-562 leukemia
# [36] = system: NCI/ADR-RES ovarian
# [37] = system: HS 578T breast
# [38] = system: CCRF-CEM leukemia
# [39] = system: LOX IMVI melanoma
# [40] = system: RPMI-8226 leukemia
# [41] = system: MDA-MB-435
# [42] = system: HCC-2998 colon
# [43] = system: UACC-62 melanoma
# [44] = system: SF-295 CNS
# [45] = system: HL-60(TB) leukemia
# [46] = system: SK-MEL-28 melanoma
# [47] = system: U251 CNS
# [48] = system: SF-268 CNS
# [49] = system: SNB-19 CNS
# [50] = system: OVCAR-3 ovarian
# [51] = system: OVCAR-8 ovarian
# [52] = system: UACC-257 melanoma
# [53] = system: NCI-H226 lung
# [54] = system: A498 renal
# [55] = system: OVCAR-4 ovarian
compound,measurement,setting,value
Cc1[nH]nc2ccc3nc(-c4cn[nH]c4C(F)(F)F)c4c(c3c12)CCCC4,GI50,[1],2.77 µM
same,TGI,[1],10.9 µM
same,GI50,[2],2.86 µM
same,TGI,[2],8.51 µM
same,GI50,[3],2.82 µM
same,TGI,[3],13.3 µM
same,GI50,[4],2.46 µM
same,TGI,[4],8.78 µM
same,GI50,[5],3.3 µM
same,TGI,[5],11.8 µM
same,GI50,[6],3.15 µM
same,TGI,[6],13.7 µM
same,GI50,[7],1.78 µM
same,TGI,[7],5.31 µM
same,GI50,[8],2.84 µM
same,TGI,[8],9.62 µM
same,GI50,[9],1.37 µM
same,TGI,[9],4.39 µM
same,GI50,[10],3.54 µM
same,TGI,[10],13 µM
same,GI50,[11],2.95 µM
same,TGI,[11],11 µM
same,GI50,[12],1.56 µM
same,TGI,[12],4.13 µM
same,GI50,[13],3.94 µM
same,TGI,[13],17.1 µM
same,GI50,[14],2.1 µM
same,TGI,[14],5.19 µM
same,GI50,[15],4.03 µM
same,TGI,[15],16.8 µM
same,GI50,[16],4.04 µM
same,TGI,[16],13.6 µM
same,GI50,[17],3.9 µM
same,TGI,[17],12.7 µM
same,GI50,[18],3.53 µM
same,TGI,[18],12.5 µM
same,GI50,[19],1.44 µM
same,TGI,[19],5.06 µM
same,GI50,[20],3.99 µM
same,TGI,[20],18.5 µM
same,GI50,[21],3 µM
same,TGI,[21],13.1 µM
same,GI50,[22],2.29 µM
same,TGI,[22],11.7 µM
same,GI50,[23],2.58 µM
same,TGI,[23],10.3 µM
same,GI50,[24],2.03 µM
same,TGI,[24],6.54 µM
same,GI50,[25],2.26 µM
same,TGI,[25],11.6 µM
same,GI50,[26],2.61 µM
same,TGI,[26],7.43 µM
same,GI50,[27],2.16 µM
same,TGI,[27],5.89 µM
same,GI50,[28],2.95 µM
same,TGI,[28],12.5 µM
same,GI50,[29],3.31 µM
same,TGI,[29],13.3 µM
same,GI50,[30],2.94 µM
same,TGI,[30],9.26 µM
same,GI50,[31],2.4 µM
same,TGI,[31],12.1 µM
same,GI50,[32],2.48 µM
same,TGI,[32],11.3 µM
same,GI50,[33],2.75 µM
same,TGI,[33],9.34 µM
same,GI50,[34],3.24 µM
same,TGI,[34],10.9 µM
same,GI50,[35],3.5 µM
same,TGI,[35],19.9 µM
same,GI50,[36],11.7 µM
same,TGI,[36],30.1 µM
same,GI50,[37],2.14 µM
same,TGI,[37],5.19 µM
same,GI50,[38],3.49 µM
same,TGI,[38],19.1 µM
same,GI50,[39],3.55 µM
same,TGI,[39],13.1 µM
same,GI50,[40],2.49 µM
same,TGI,[40],30.3 µM
same,GI50,[41],3.01 µM
same,TGI,[41],11.2 µM
same,GI50,[42],3.52 µM
same,TGI,[42],12.6 µM
same,GI50,[43],2.09 µM
same,TGI,[43],6.64 µM
same,GI50,[44],3.34 µM
same,TGI,[44],14 µM
same,GI50,[45],2.72 µM
same,TGI,[45],6.92 µM
same,GI50,[46],3.79 µM
same,TGI,[46],14.2 µM
same,GI50,[47],4.41 µM
same,TGI,[47],17.6 µM
same,GI50,[48],2.99 µM
same,TGI,[48],13.5 µM
same,GI50,[49],5.14 µM
same,TGI,[49],17.9 µM
same,GI50,[50],4.15 µM
same,TGI,[50],14.6 µM
same,GI50,[51],4.44 µM
same,TGI,[51],18.7 µM
same,GI50,[52],8.47 µM
same,TGI,[52],22 µM
same,GI50,[53],5.15 µM
same,TGI,[53],43.7 µM
same,GI50,[54],2.32 µM
same,TGI,[54],6.77 µM
same,GI50,[55],8.96 µM
same,TGI,[55],21.2 µM
